# Test results from article PMC10623572, “Subtle Structural Modification of a Synthetic Cannabinoid Receptor Agonist Drastically Increases its Efficacy at the CB1 Receptor” (ACS Chemical Neuroscience, 2023).
# Legend:
# CB1R (CB1R-Rluc) [1] = target: T1, CB1R (CB1R-Rluc) (Homo sapiens, UniProt P21554); assay: BRET CB1R-Rluc/beta-arrestin 2-Venus recruitment; type: cell-based
# T1 construct: gene CNR1; Rluc-fused receptor in HEK-293T cells; with mVenus-Gi1 plus Gbeta1/Ggamma2, or beta-arrestin 2-Venus plus GRK2
# Source text: BRET CB1R-Rluc/beta-arrestin 2-Venus recruitment on CB1R (CB1R-Rluc)
# CB1R (CB1R-Rluc) [2] = target: T1, CB1R (CB1R-Rluc); assay: BRET CB1R-Rluc/Gi1-Venus engagement; type: cell-based
# [3] = target: T2, CB1R (presynaptic, mouse hippocampus) (Mus musculus, UniProt P47746); assay: fEPSP field recording, inhibition of glutamate release in hippocampal slices; details: agonist; native presynaptic receptor, downstream read-out; 31-32 °C; 50 µM caffeine; reversed by AM251
# T2 construct: gene Cnr1; native receptor in hippocampal brain slices
# [4] = read-out: 5F-SDB-006 (converted)
# [5] = read-out: 5F-MMB-PICA (converted)
# T1 sequence (P21554 whole entry, the tested form may be a part): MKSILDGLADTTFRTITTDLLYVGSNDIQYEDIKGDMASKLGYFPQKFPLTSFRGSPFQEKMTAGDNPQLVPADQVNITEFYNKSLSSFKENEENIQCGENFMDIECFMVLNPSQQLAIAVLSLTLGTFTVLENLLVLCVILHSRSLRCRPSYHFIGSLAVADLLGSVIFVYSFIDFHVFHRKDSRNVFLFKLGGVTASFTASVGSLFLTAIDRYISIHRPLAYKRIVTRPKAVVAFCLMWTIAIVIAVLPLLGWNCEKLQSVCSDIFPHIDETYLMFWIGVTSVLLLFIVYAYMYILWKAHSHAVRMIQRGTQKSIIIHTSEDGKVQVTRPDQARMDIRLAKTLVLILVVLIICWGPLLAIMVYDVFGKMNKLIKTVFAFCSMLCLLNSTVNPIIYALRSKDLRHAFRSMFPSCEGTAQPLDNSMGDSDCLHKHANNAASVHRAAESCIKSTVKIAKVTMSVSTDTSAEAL
# T2 sequence (P47746 whole entry): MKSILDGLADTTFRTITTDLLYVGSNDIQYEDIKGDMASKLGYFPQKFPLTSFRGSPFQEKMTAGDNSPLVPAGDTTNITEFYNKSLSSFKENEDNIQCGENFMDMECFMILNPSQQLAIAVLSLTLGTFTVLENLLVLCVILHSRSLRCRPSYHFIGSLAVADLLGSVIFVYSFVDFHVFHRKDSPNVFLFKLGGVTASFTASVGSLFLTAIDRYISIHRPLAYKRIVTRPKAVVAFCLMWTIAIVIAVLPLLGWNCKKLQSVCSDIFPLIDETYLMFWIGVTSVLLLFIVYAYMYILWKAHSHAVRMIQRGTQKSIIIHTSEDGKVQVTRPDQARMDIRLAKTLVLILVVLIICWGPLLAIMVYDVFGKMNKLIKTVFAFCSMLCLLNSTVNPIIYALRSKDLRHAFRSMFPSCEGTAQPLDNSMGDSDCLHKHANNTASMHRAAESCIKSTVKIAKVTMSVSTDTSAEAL
smiles,measurement,setting,value
O=C(c1cccc2ccccc12)c1cn(CCCCCF)c2ccccc12 [AM2201],EC50,CB1R (CB1R-Rluc) [1]; read-out: AM2201 (converted),0.759 µM
same,EC50,CB1R (CB1R-Rluc) [2]; read-out: AM2201 (converted),0.339 µM
COC(=O)C(NC(=O)c1cn(CCCCCF)c2ccccc12)C(C)(C)C (stereo not shown) [5F-MDMB-PICA],pEC50,[3],7.20
O=C(NCc1ccccc1)c1cn(CCCCCF)c2ccccc12 [5F-SDB-006],EC50,CB1R (CB1R-Rluc) [1]; [4],2.45 µM
same,EC50,CB1R (CB1R-Rluc) [2]; [4],1.48 µM
COC(=O)C(NC(=O)c1cn(CCCCCF)c2ccccc12)C(C)C (stereo not shown) [5F-MMB-PICA],EC50,CB1R (CB1R-Rluc) [1]; [5],3.63 µM
same,pEC50,[3],6.72
same,EC50,CB1R (CB1R-Rluc) [2]; [5],2.95 µM
O=C(Nc1cccc2ccccc12)c1cn(CCCCCF)c2ccccc12 [5F-NNEI],EC50,CB1R (CB1R-Rluc) [1]; read-out: 5F-NNEI,5.25 µM
same,EC50,CB1R (CB1R-Rluc) [2]; read-out: 5F-NNEI (converted),4.68 µM
